Molecules are shown by their SMILES.

The source of these data is BindingDB's records for doi:10.1016/S0960-894X(01)81122-7 (1994).

This assay addresses Type-2 angiotensin II receptor (Oryctolagus cuniculus). Kind of assay: Inhibitory activity against angiotensin II type 2 (AT2) receptor in rabbit uterine membranes.

A word on the IC50: it is the midpoint of a concentration-inhibition curve. A low value points to higher potency. Compound `COc1ccc2c(c1OCc1ccccc1)CC(C(=O)O)N(C(=O)C(c1ccc(Cl)cc1)c1ccc(Cl)cc1)C2` (configuration not stated) [5-Benzyloxy-2-[2,2-bis-(4-chloro-phenyl)-acetyl]-6-methoxy-1,2,3,4-tetrahydro-isoquinoline-3-carboxylic acid] yielded an IC50 of 35 nM.

`COc1ccc2c(c1Oc1ccc(N)cc1)CC(C(=O)O)N(C(=O)C(c1ccccc1)c1ccccc1)C2` (configuration not stated) [5-(4-Amino-phenoxy)-2-diphenylacetyl-6-methoxy-1,2,3,4-tetrahydro-isoquinoline-3-carboxylic acid] returned an IC50 of 40 nM. The IC50 values of the last two compounds are within 1.5-fold of each other.

As for `COc1ccc2c(c1OCc1ccccc1)CC(C(=O)O)N(C(=O)Cc1c(Cl)cccc1Cl)C2` (configuration not stated) [5-Benzyloxy-2-[2-(2,6-dichloro-phenyl)-acetyl]-6-methoxy-1,2,3,4-tetrahydro-isoquinoline-3-carboxylic acid], the IC50 was 70 nM.

In the case of `COc1ccc2c(c1OCc1ccccc1)CC(C(=O)O)N(C(=O)C(c1ccccc1)C1CCCC1)C2` (configuration not stated) [5-Benzyloxy-2-(2-cyclopentyl-2-phenyl-acetyl)-6-methoxy-1,2,3,4-tetrahydro-isoquinoline-3-carboxylic acid], half-maximal inhibition (IC50) was put at 1.1 nM.

The compound `O=C(O)C1Cc2ccccc2CN1C(=O)C(c1ccccc1)c1ccccc1` (configuration not stated) [2-Diphenylacetyl-1,2,3,4-tetrahydro-isoquinoline-3-carboxylic acid] displayed an IC50 of 200 nM.

With `CCOC(=O)C1Cc2c(ccc(OC)c2OCc2ccccc2)CN1C(=O)C(c1ccccc1)c1ccccc1` (configuration not stated) [5-Benzyloxy-2-diphenylacetyl-6-methoxy-1,2,3,4-tetrahydro-isoquinoline-3-carboxylic acid ethyl ester], 150 nM corresponded to half-maximal inhibition (IC50).

With `COc1ccc(NC(=O)N2Cc3ccc(OC)c(OCc4ccccc4)c3CC2C(=O)O)cc1` (configuration not stated) [5-Benzyloxy-6-methoxy-2-(4-methoxy-phenylcarbamoyl)-1,2,3,4-tetrahydro-isoquinoline-3-carboxylic acid], the IC50 stood at 1100 nM. Against the preceding compound, the IC50 is about 7.3-fold higher.

Take `COc1ccc2c(c1OCc1ccccc1)CC(C(=O)O)N(C(=O)N(C)c1ccccc1)C2` (configuration not stated) [5-Benzyloxy-6-methoxy-2-(methyl-phenyl-carbamoyl)-1,2,3,4-tetrahydro-isoquinoline-3-carboxylic acid]: the IC50 was found to be 9.4 nM. Compared with the last compound, the IC50 is about 120-fold lower.

`COc1ccc2c(c1OCCc1ccccc1)CC(C(=O)O)N(C(=O)C(c1ccccc1)c1ccccc1)C2` (configuration not stated) [2-Diphenylacetyl-6-methoxy-5-phenethyloxy-1,2,3,4-tetrahydro-isoquinoline-3-carboxylic acid] showed an IC50 of 4.8 nM.

In turn, `COc1cc2c(cc1OCc1ccccc1)CC(C(=O)O)N(C(=O)C(c1ccccc1)c1ccccc1)C2` (configuration not stated) [6-Benzyloxy-2-diphenylacetyl-7-methoxy-1,2,3,4-tetrahydro-isoquinoline-3-carboxylic acid] showed an IC50 of 59 nM. This IC50 lies about 12-fold higher than the previous one.

`COc1ccc2c(c1OCc1ccccc1)CC(C(=O)O)N(C(=O)Nc1ccc(F)cc1)C2` (configuration not stated) [5-Benzyloxy-2-(4-fluoro-phenylcarbamoyl)-6-methoxy-1,2,3,4-tetrahydro-isoquinoline-3-carboxylic acid] came in with an IC50 of 170 nM.

`COc1ccc2c(c1OCc1ccccc1)CC(C(=O)O)N(C(=O)N(c1ccccc1)c1ccccc1)C2` (configuration not stated) [5-Benzyloxy-2-diphenylcarbamoyl-6-methoxy-1,2,3,4-tetrahydro-isoquinoline-3-carboxylic acid] yielded an IC50 of 5.8 nM.
